From publication PMC9571547, “New Triazinoindole Bearing Benzimidazole/Benzoxazole Hybrids Analogs as Potent Inhibitors of Urease: Synthesis, In Vitro Analysis and Molecular Docking Studies” (Molecules, 2022)
Read-outs that look alike come from different tables or passages of the source.

Molecular target: urease enzyme (Canavalia ensiformis, UniProt P07374)
Assay: biochemical
Assay type: biochemical
Conditions: for potency relative to standard thiourea drug (fold): urease inhibition, compared to thiourea
Experimental: First, 5 μL of the test compounds were added to the reaction mixtures, which also contained 25 μL of enzyme solution and 55 μL of buffer containing 100 mM urea, then the mixtures were incubated in 96-well plates at 30 °C for 15 min (0.5 mM concentration). For the kinetics analysis, urea concentrations were changed from 2 to 24 mM. Urease activity was determined by measuring ammonia generation using Weatherburn’s indophenol method. In a nutshell, each well received 45 μL of the 0.005% w/v sodium nitroprusside, phenol reagent 1% w/v phenol, and 70 μL of the alkali reagent—0.1% active chloride NaOCl and 0.5% w/v NaOH. Using a microplate reader, rising absorbance at 630 nm was observed after 50 min (Molecular Devices, San Jose, CA, USA). In a final volume of 200 μL, each reaction was carried out three times. Using the software SoftMaxPro, the results (change in absorbance per minute) were processed (Molecular Devices, San Jose, CA, USA). The experiments were run at pH 6.8 throughout. The formula 100-(ODtest well/ODcontrol) 100 was used to calculate the percentage of inhibition.

Chain of urease enzyme (P07374 whole entry, looked up): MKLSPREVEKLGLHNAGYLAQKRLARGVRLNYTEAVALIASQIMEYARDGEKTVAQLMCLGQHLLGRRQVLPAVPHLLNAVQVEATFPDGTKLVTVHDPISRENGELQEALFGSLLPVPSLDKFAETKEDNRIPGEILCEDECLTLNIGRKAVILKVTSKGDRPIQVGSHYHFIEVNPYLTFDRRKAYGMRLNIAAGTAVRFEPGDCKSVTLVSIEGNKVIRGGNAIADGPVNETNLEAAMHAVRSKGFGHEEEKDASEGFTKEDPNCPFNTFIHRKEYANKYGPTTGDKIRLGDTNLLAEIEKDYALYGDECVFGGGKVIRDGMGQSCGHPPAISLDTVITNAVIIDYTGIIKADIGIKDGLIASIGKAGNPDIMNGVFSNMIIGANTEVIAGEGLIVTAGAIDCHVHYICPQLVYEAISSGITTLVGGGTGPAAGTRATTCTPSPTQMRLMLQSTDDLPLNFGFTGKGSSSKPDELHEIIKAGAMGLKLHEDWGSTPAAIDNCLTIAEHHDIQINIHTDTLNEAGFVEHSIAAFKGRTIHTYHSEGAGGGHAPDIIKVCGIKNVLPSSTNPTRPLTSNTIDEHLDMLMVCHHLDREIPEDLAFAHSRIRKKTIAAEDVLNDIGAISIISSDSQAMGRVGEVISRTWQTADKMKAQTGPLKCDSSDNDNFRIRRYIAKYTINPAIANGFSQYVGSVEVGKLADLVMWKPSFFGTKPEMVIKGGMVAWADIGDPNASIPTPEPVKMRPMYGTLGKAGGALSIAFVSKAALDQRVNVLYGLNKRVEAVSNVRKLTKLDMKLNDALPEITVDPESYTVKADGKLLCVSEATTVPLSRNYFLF

Work on `NC(N)=S` [Standard Thiourea, thiourea, reference compound] yielded an IC50 (in vitro, pH 6.8, 30 °C, 100 mM urea, thiourea as standard, read-out: IC50 ± SEM against the urease enzyme) of 21.9 ± 0.4 µM.

For `O=C(c1ccc([N+](=O)[O-])cc1)n1c(CSc2nnc3c4cc([N+](=O)[O-])ccc4n(C(=O)c4ccc([N+](=O)[O-])cc4)c3n2)nc2ccccc21` [analog 1], the IC50 was 17.6 ± 0.3 µM.

Compound `O=C(c1ccc(O)cc1O)n1c(CSc2nnc3c4cc([N+](=O)[O-])ccc4n(C(=O)c4ccc(O)cc4O)c3n2)nc2ccccc21` [analog 2] has an IC50 of 1.9 ± 0.1 µM.

Compound `O=C(c1cc(O)cc(O)c1)n1c(CSc2nnc3c4cc([N+](=O)[O-])ccc4n(C(=O)c4cc(O)cc(O)c4)c3n2)nc2ccccc21` [analog 3] has an IC50 of 2.1 ± 0.1 µM.

Compound `COc1ccccc1C(=O)n1c(CSc2nnc3c4cc([N+](=O)[O-])ccc4n(C(=O)c4ccccc4OC)c3n2)nc2ccccc21` [analog 4] has an IC50 of 32.2 ± 0.3 µM.

In the case of `O=C(c1ccc(O)c(O)c1)n1c(CSc2nnc3c4cc([N+](=O)[O-])ccc4n(C(=O)c4ccc(O)c(O)c4)c3n2)nc2ccccc21` [analog 5], the IC50 is reported as 0.9 ± 0.01 µM.

Compound `O=C(c1cc(O)ccc1O)n1c(CSc2nnc3c4cc([N+](=O)[O-])ccc4n(C(=O)c4cc(O)ccc4O)c3n2)nc2ccccc21` [analog 6] has an IC50 of 6.7 ± 0.2 µM.

`O=C(c1cccc(O)c1)n1c(CSc2nnc3c4cc([N+](=O)[O-])ccc4n(C(=O)c4cccc(O)c4)c3n2)nc2ccccc21` [analog 7] was tested, and the IC50 was 18.9 ± 0.4 µM.

For `O=C(c1c(O)cc(O)cc1O)n1c(CSc2nnc3c4cc([N+](=O)[O-])ccc4n(C(=O)c4c(O)cc(O)cc4O)c3n2)nc2ccccc21` [analog 8], the IC50 was 0.2 ± 0.01 µM.

With `CN(C)c1ccc(C(=O)n2c(CSc3nnc4c5cc([N+](=O)[O-])ccc5n(C(=O)c5ccc(N(C)C)cc5)c4n3)nc3ccccc32)cc1` [analog 9] the IC50 was 31.1 ± 0.3 µM.

`O=C(c1ccccc1[N+](=O)[O-])n1c(CSc2nnc3c4cc([N+](=O)[O-])ccc4n(C(=O)c4ccccc4[N+](=O)[O-])c3n2)nc2ccccc21` [analog 10] was tested, and the IC50 was 19.3 ± 0.4 µM.

`O=C(c1cccc([N+](=O)[O-])c1)n1c(CSc2nnc3c4cc([N+](=O)[O-])ccc4n(C(=O)c4cccc([N+](=O)[O-])c4)c3n2)nc2ccccc21` [analog 11] showed an IC50 of 26.6 ± 0.5 µM.

In the case of `O=C(c1ccc(O)cc1)n1c(CSc2nnc3c4cc([N+](=O)[O-])ccc4n(C(=O)c4ccc(O)cc4)c3n2)nc2ccccc21` [analog 12], the IC50 is reported as 14.6 ± 0.3 µM.

With `O=C(c1ccc(Cl)cc1)n1c2ccc([N+](=O)[O-])cc2c2nnc(SCc3nc4ccccc4o3)nc21` [analog 13] the IC50 was 9.7 ± 0.2 µM.

Work on `COC(=O)c1ccc(C(=O)n2c3ccc([N+](=O)[O-])cc3c3nnc(SCc4nc5ccccc5o4)nc32)cc1` [analog 14] yielded an IC50 of 23.9 ± 0.5 µM.

`Cc1ccccc1C(=O)n1c2ccc([N+](=O)[O-])cc2c2nnc(SCc3nc4ccccc4o3)nc21` [analog 15] gave an IC50 of 36.2 ± 0.7 µM.

`Cc1ccc(C(=O)n2c3ccc([N+](=O)[O-])cc3c3nnc(SCc4nc5ccccc5o4)nc32)cc1` [analog 16] was tested, and the IC50 was 28.2 ± 0.5 µM.

With `O=C(c1cccc(Cl)c1)n1c2ccc([N+](=O)[O-])cc2c2nnc(SCc3nc4ccccc4o3)nc21` [analog 17] the IC50 was 22.2 ± 0.5 µM.

`O=C(c1ccccc1O)n1c2ccc([N+](=O)[O-])cc2c2nnc(SCc3nc4ccccc4o3)nc21` [analog 18] gave an IC50 of 3.8 ± 0.1 µM.

In the case of `Cc1cccc(C(=O)n2c3ccc([N+](=O)[O-])cc3c3nnc(SCc4nc5ccccc5o4)nc32)c1` [analog 19], the IC50 is reported as 34.9 ± 0.7 µM.

For `COc1ccc(C(=O)n2c3ccc([N+](=O)[O-])cc3c3nnc(SCc4nc5ccccc5o4)nc32)cc1O` [analog 20], the IC50 was 2.7 ± 0.1 µM.

For `COc1ccc(C(=O)n2c3ccc([N+](=O)[O-])cc3c3nnc(SCc4nc5ccccc5o4)nc32)c(OC)c1` [analog 21], the IC50 was 31.8 ± 0.5 µM.

For `O=C(c1cccc(O)c1O)n1c2ccc([N+](=O)[O-])cc2c2nnc(SCc3nc4ccccc4o3)nc21` [analog 22], the IC50 was 1.7 ± 0.1 µM and the “potency relative to standard thiourea drug (fold)” value was “ten-fold-enhanced inhibitory potential”.

`O=C(c1ccccc1F)n1c2ccc([N+](=O)[O-])cc2c2nnc(SCc3nc4ccccc4o3)nc21` [analog 23] was tested, and the IC50 was 1.1 ± 0.01 µM and the “potency relative to standard thiourea drug (fold)” value was “ten-fold-enhanced inhibitory potential”.

Compound `O=C(c1cccc(F)c1)n1c2ccc([N+](=O)[O-])cc2c2nnc(SCc3nc4ccccc4o3)nc21` [analog 24] has an IC50 of 1.6 ± 0.01 µM.

Compound `O=C(c1cccc([N+](=O)[O-])c1)n1c2ccc([N+](=O)[O-])cc2c2nnc(SCc3nc4ccccc4o3)nc21` [analog 25] has an IC50 of 21.2 ± 0.4 µM.
